Test results published in article PMC9696579 (Nature structural & molecular biology, 2022).
Each block holds one compound with its values, some of them ahead of it. Where a SMILES comes first, the peptide text is derived from it. The star is where a group is joined. 5FAM = O=C1OC2(c3ccc(O)cc3Oc3cc(O)ccc32)c2ccc(C(=O)*)cc21; PEG3 = NCCOCCOCCOCCC(=O)O

Tests used:
human PKA-Cα = human PKA-Cα (Homo sapiens, UniProt P17612); test: Fluorescence polarization, FAM-labeled SMO peptide binding to human PKA-Cα; conditions: human or mouse PKA-Cα
SMO [1] = test: Immunofluorescence of SMO and endogenous PKA-C in NIH3T3 cilia
SMO [2] = conditions: inverse agonist; cited from earlier work
PKA-Cα [3] = test: SMO / PKA-C colocalization in cilia of IMCD3 cells; assay type: cell-based; conditions: WRR mutation, SAG21k 1 μM overnight
GLI = GLI transcriptional reporter assay in Smo−/− MEFs; assay type: cell-based, mouse; conditions: ShhN conditioned medium, 2 days, n = three
PKA-Cα [4] = test: BRET analysis of SMO / PKA-C interactions in IMCD3 cells; assay type: cell-based, mouse; conditions: PKA-C expressed at near-endogenous levels, n = three
mouse PKA-Cα = mouse PKA-Cα (Mus musculus, UniProt P05132); test: Surface plasmon resonance; conditions: SPR
[5] = target: mouse PKA catalytic subunit (Cα) (Mus musculus, UniProt P05132); test: In vitro PKA-C activity assay; assay type: biochemical; conditions: read-out: IC50 for PKA-C activity; recombinant SMO pCT; apparent IC50; 15–30 nM Cα, 260 μM Kemptide, 100 μM ATP, 10 mM MgCl2, 100 mM MOPS pH 7; 3 min preincubation, room temperature; two independent experiments
PKA-Cα [6] = test: BRET analysis of SMO / PKA-C interactions in HEK293 cells; assay type: cell-based, mouse; conditions: nanoluc-tagged SMO657 with YFP-tagged PKA-Cα, mean, n = three
smo−/− zebrafish = test: Slow muscle specification in smo−/− zebrafish embryos; assay type: in vivo, Danio rerio; conditions: mRNA injection; Prox1 / Engrailed staining; <26 hours post-fertilization

Compound: CC[C@H](C)[C@H](NC(=O)[C@H](C)NC(=O)CNC(=O)[C@H](CCCNC(=N)N)NC(=O)[C@H](CCCNC(=N)N)NC(=O)[C@H](C)NC(=O)[C@@H](NC(=O)[C@H](CCSC)NC(=O)[C@H](CCCCN)NC(=O)[C@@H](NC(=O)[C@@H](NC(=O)[C@H](Cc1c[nH]cn1)NC(=O)[C@H](CCC(N)=O)NC(=O)[C@H](C)NC(=O)[C@H](Cc1c[nH]c2ccccc12)NC(=O)[C@H](C)NC(=O)[C@H](CO)NC(=O)[C@H](CO)NC(=O)[C@@H](NC(=O)[C@H](CC(=O)O)NC(=O)[C@H](C)NC(=O)[C@H](CO)NC(=O)CCOCCOCCOCCNC(=O)c1ccc2c(c1)C(=O)OC21c2ccc(O)cc2Oc2cc(O)ccc21)C(C)C)C(C)C)[C@@H](C)O)C(C)C)C(=O)N[C@@H](CC(C)C)C(=O)N1CCC[C@H]1C(=O)O ({5FAM-PEG3}-SADVSSAWAQHVTKMVARRGAILP-OH)
ATP dependence of interaction with PKA-Cα (human PKA-Cα): strongly ATP-dependent

Compound: CNC1CCC(N(Cc2cccc(-c3ccncc3)c2)C(=O)c2sc3ccccc3c2Cl)CC1 (stereo not shown) [SAG]
accumulation of SMO in cilia (SMO [1]; NIH3T3 stably expressing SMO-V5-TurboID, SAG 100 nM, anti-V5): dramatic accumulation of SMO in cilia

Compound: CC1=C2C[C@H]3[C@@H](CC=C4C[C@@H](O)CC[C@@]43C)[C@@H]2CC[C@]12O[C@@H]1C[C@H](C)CN[C@H]1[C@H]2C [cyclopamine]
SMO colocalization with endogenous PKA-C in primary cilium (SMO [1]; NIH3T3, cyclopamine 5 μM, 8 hours): did not occur
effect on SMO (accumulation in cilia, conformation) (SMO [2]): induces SMO to accumulate in cilia but traps it in an inactive conformation

Compound: SMO WRR: full-length SMO with WRR mutation (SADVSSAAAQHVTKMVAAAGAILPQDVSVTPVATPVPP)
colocalization with PKA-C in cilia (PKA-Cα [3]): dramatically reduced colocalization in cilia
GLI transcriptional response (GLI): almost completely devoid of activity
interaction with PKA-C (BRET) (PKA-Cα [4]): prevented interaction between SMO and PKA-C

binding to PKA-Cα (mouse PKA-Cα; mouse PKA-Cα, ATP and MgCl2 present): bound specifically to mouse PKA-Cα
Compound: SMO pCT: recombinant protein encompassing the entire 93 amino-acid SMO pCT, GST-tagged for SPR
ATP/MgCl2 dependence of PKA-C binding (mouse PKA-Cα; ATP and MgCl2 omitted, PKA-Cα […]): depended strictly on ATP and MgCl2

IC50 [5]: 10.9 µM
Compound: recombinant SMO pCT: residues 565–657 of mouse SMO, cleaved from MBP-His8-SUMO tags

Compound: wild-type SMO657: nanoluc-tagged truncated SMO construct
BRET with PKA-C (PKA-Cα [6]): strong, specific BRET

Compound: wild-type SMO: full-length wild-type SMO construct
muscle specification in smo−/− zebrafish (smo−/− zebrafish): restored correct muscle specification
GLI transcriptional response (GLI): strong GLI transcriptional responses to Hh ligands
